Measurements published in US20240382484A1, “COMPOSITION FOR TREATING, PREVENTING, OR AMELIORATING MELANOMA AND METHOD THEREOF” (Thomas Jefferson University, priority 2021, published 2024).

Columns and labels:
WM1361A and WM1366 cells = assay: Reverse-phase protein array and immunoblot analysis; assay type: cell-based, human; details: immunoblot, 24 hours
Method: FIG. 15A: Reverse-phase protein array analysis of WM1361A and WM1366 cells. The cells were treated with vehicle (DMSO), either pharmacologic inhibition or genetic depletion of PDPK1 only, MEK inhibitor only and the combinations as indicated. All samples were harvested in three biological independent experiments. Proteins levels were normalized to the mean. Antibodies were limited to those that were differentially expressed (BHFDR <0.05) in at least three of the four comparisons between combination and control samples. FIG. 15B: WM1361A and WM1366 cells were treated with PD0325901 and GSK2334470 as indicated for 24 hours. Cell lysates were applied to immunoblot with indicated antibodies. FIG. 15C: WM1361A and WM1366 parental clones (iCas9) and PDPK1-depleted clones by two individual sgRNAs (KO1 and K02) treated with trametinib as indicated for 24 hours. Cell lysates were applied to immunoblot with indicated antibodies.
WM1361A and WM1366 cells were treated with vehicle control, PDPK1i (GSK2334470), MEKi (trametinib) or combined PDPK1i and MEKi for 48 hours. WM1361A and WM1366 cells were also transfected with ON-target control siRNAs or PDPK1 siRNAs, and then treated with or without trametinib for further 48 hours. Cells were harvested, lysed and analyzed as described in Tibes et al. (Mol Cancer Ther 5, 2512-2521, 2006). […]

[1] = tested on: human NRAS mutant melanoma cell lines; assay: 72 hours drug combination, cell density by IncuCyte, synergy by Combenefit with Loewe method; assay type: cell-based; details: WM1361A, WM1366, SK-MEL-30 and SK-MEL-173, 72 hours
Method: FIG. 2A: NRAS mutant melanoma cell line WM1361A, WM1366, SK-MEL-30, SK-MEL-173, 1007 and 1014 were treated for 72 hours as indicated with GSK2334470 and trametinib and analyzed for cell density by IncuCyte. Synergy graphs were generated utilizing Combenefit Software with Loewe method. Data are represented as the mean from three biological independent experiments. FIG. 2B: WM1361A, WM1366, SK-MEL-30 or SK-MEL-173 cells were treated with GSK2334470 (PDPK1i) and trametinib (tram) alone or in combination (comb) at the indicated concentrations for 7 days. Cell growth was monitored by IncuCyte every 2 hours. Media were replaced twice with drugs during culture. Data are represented as the mean±SEM of three biological independent experiments. p values were calculated with an unpaired two-tailed t test. n.s., not significant.
FIG. 10A-10B: Cas9 expressed clone WM1361A-iCas9 #1 (FIG. 10A), and WM1366-iCas9 #11 (FIG. 10B) cells were treated for 72 hours as indicated with GSK2334470 and trametinib and analyzed for cell density by IncuCyte. Synergy graphs were generated utilizing Combenefit Software with Loewe method. Data are represented as the mean from three biological independent experiments.
FIG. 11A: WM1361A, WM1366, SK-MEL-30 and SK-MEL-173 cells were treated for 72 hours as indicated with GSK2334470 and PD0325901 and analyzed for cell density by IncuCyte. Synergy graphs were generated utilizing Combenefit Software with Loewe method. Data are represented as the mean from three biological independent experiments. FIG. 11B: WM1361A, WM1366, SK-MEL-30 or SK-MEL-173 cells were treated with GSK2334470 (PDPK1i) and PD0325901 (PD901) alone or in combination (Comb) at the indicated concentrations for 7 days. Cell growth was monitored by IncuCyte every 2 hours. Data are represented as the mean±SEM of three biological independent experiments. p values were calculated with an unpaired two-tailed t test. n.s., not significant.
FIG. 16A: WM1361A and WM1366 cells were treated for 72 hours with indicated inhibitors and analyzed for cell density by IncuCyte. Synergy graphs were generated utilizing Combenefit Software with Loewe method. Data are represented as the mean from three biological independent experiments.
To further analyze synergistic effects, the growth response of a panel of several NRAS mutant cells to titrated PDPK1i (GSK2334470) and MEKi (trametinib) combinations was assessed.
Human WM1361A and WM1366 melanoma cell lines were cultured in MCDB153 (Sigma) with 2% FBS, 20% Leibowitz L-15 medium, and 5 μg/mL insulin (WM medium). Human SK-MEL-30 and SK-MEL-173 melanoma cell lines were cultured in RPMI-1640 with 10% FBS. […] All cells were cultured at 37° C. in a humidified atmosphere containing 5% CO2. […] Cell lines were STR analyzed, confirmed for NRAS/Nras mutation, and tested to be mycoplasma-free during experiments. For cell proliferation and drug response, cells were monitored by IncuCyte® (Essen Bioscience, Ann Arbor, MI) every 2 hours.

1014 tumors = assay: Flow cytometry of tumor-infiltrating immune cells from 1014 tumors; assay type: in vivo, mouse; details: day 7 post treatment, over the control group
SK-MEL-30 xenografts = assay: SK-MEL-30 xenograft model in Nu/J mice; assay type: in vivo, mouse; details: trametinib chow and/or GSK2334470 100 mg/kg intraperitoneally every 3 days
Method: FIG. 4A-4B, In Nu/J mice, SK-MEL-30 tumor growth (FIG. 4A) represented as the change in volume (mm^3) over time and Kaplan-Meier survival curves (FIG. 4B) were shown from the start of treatment as indicated. Ctrl: control chow+mock injection (n=7), Tram: trametinib chow+mock injection (n=7), G4470: control chow+GSK2334470 injection (n=5), Comb: trametinib chow+GSK2334470 injection (n=7). Mice were injected and tumor volume was monitored every 3 days. Data are represented as the mean±SEM. The dotted line at 1000 mm^3 marks the experimental endpoint. p values were calculated by GraphPad Prism 9.0 with Log-rank (Mantel-Cox) test. n.s., not significant. […]
FIGS. 14A-14B: Sex disparities in SK-MEL-30 xenografts, in accordance with some embodiments. […] Mice were injected and tumor volume was monitored every 3 days. […] The dotted line at 1000 mm^3 marks the experimental endpoint. p values were calculated by GraphPad Prism 9.0 with Log-rank (Mantel-Cox) test. n.s., not significant.
Animal experiments were performed at Thomas Jefferson University in a facility accredited by the Association for the Assessment and Accreditation of Laboratory Animal Care and were approved by the Institutional Animal Care and Use Committee (protocol #1052). […] Mouse weights were monitored once a week or three times per week during drug treatment. […]

O=C(NOC[C@H](O)CO)c1ccc(F)c(F)c1Nc1ccc(I)cc1F [PD0325901, (R)—N-(2,3-dihydroxypropoxy)-3,4-difluoro-2-((2-fluoro-4-iodophenyl)amino)benzamide]
p-S6, second MEKi with PDPK1i or sgRNA PDPK1 depletion (WM1361A and WM1366 cells): enhanced reduction
synergistic inhibition of PDPK1i (GSK2334470) with PD0325901 [1]: broad synergistic effects

CC(=O)Nc1cccc(-n2c(=O)n(C3CC3)c(=O)c3c(Nc4ccc(I)cc4F)n(C)c(=O)c(C)c32)c1 [trametinib, N-(3-(3-cyclopropyl-5-((2-fluoro-4-iodophenyl)amino)-6,8-dimethyl-2,4,7-trioxo-3,4,6,7-tetrahydropyrido[4,3-d]pyrimidin-1(2H)-yl)phenyl)acetamide]
frequency of CD8+ T cells within the CD45+ cell compartment (1014 tumors): intermediate effect
tumor growth (SK-MEL-30 xenografts): suppressed tumor growth modestly
